Consider 44 molecules from patent US4581354A, “3-arylcarbonyl- and 3-cycloalkylcarbonyl-1-aminoalkyl-1H-indoles, compositions and use” (Sterling Drug Inc., priority 1985, dated 1986).

Structures can show the parent of a compound that is named as a salt.

In one assay the test system is acetylcholine-induced abdominal constriction. As to the kind of experiment: animal or person. The note with it: Mus musculus, iv, 3 mg./kg. i.v.; read-out: Ach percent inhibition. It is filed as in vivo, mice.
`Cc1c(C(=O)c2cccc3ccccc23)c2ccccc2n1CC(O)CN1CCCC1` (stereo not drawn) [Example 31F]: the inhibition in vivo at 3 mg/kg was 0%.

The assay is the same for the next values; noted with them: Mus musculus, iv, 10 mg./kg. i.v.; read-out: Ach percent inhibition.
`COc1ccc(C(=O)c2c(C)n(CC(O)CN3CCCC3)c3ccccc23)cc1` (stereo not drawn) [Example 31H]: the inhibition in vivo at 10 mg/kg stood at 80%.

Staying with this assay, now noted: Mus musculus, po, 100 mg./kg. oral; read-out: Ach percent inhibition.
On to `Cc1c(C(=NO)c2ccccc2F)c2cc(F)ccc2n1CCCN1CCOCC1` [Example 13B, 5-fluoro-3-(2-fluorobenzoyl)-2-methyl-1-[3-(4-morpholinyl)propyl]-1H-indole oxime], for which the inhibition in vivo at 100 mg/kg is 0%.

On to `Cc1c(/C(=N\O)c2ccccc2F)c2ccccc2n1CCN1CCOCC1` [Example 13C, (E)-3-(2-fluorobenzoyl)-2-methyl-1-[2-(4-morpholinyl)ethyl]-1H-indole oxime], for which the inhibition in vivo at 100 mg/kg was 20%.

As for `Cc1c(C(=O)c2ccc(-n3cccc3)cc2)c2ccccc2n1CCN1CCOCC1` [Example 14, 2-methyl-3-[4-(1H-pyrrol-1-yl)benzoyl]-1-[2-(4-morpholinyl)ethyl]-1H-indole], the inhibition in vivo at 100 mg/kg was 40%.

For `Cc1c(C(=O)c2ccccc2O)c2ccccc2n1CCN1CCOCC1` [Example 16A, 2-methyl-3-(2-hydroxybenzoyl)-1-[2-(4-morpholinyl)ethyl]-1H-indole], the inhibition in vivo at 100 mg/kg is 10%.

Regarding `Cc1c(C(=O)c2ccc(O)cc2)c2cc(F)ccc2n1CCCN1CCOCC1` [Example 16B, 5-fluoro-2-methyl-3-(4-hydroxybenzoyl)-1-[3-(4-morpholinyl)propyl]-1H-indole hydrochloride], the inhibition in vivo at 100 mg/kg is 20%.

In the case of `COc1ccc(C(=O)c2c(C)n(CCN3CCOCC3)c3cc(O)ccc23)cc1` [Example 18, 6-hydroxy-2-methyl-3-(4-methoxybenzoyl)-1-[2-(4-morpholinyl)ethyl]-1H-indole hydrochloride hydrate (3:4)], the inhibition in vivo at 100 mg/kg was found to be 30%.

For the molecule `COc1ccc(C(=O)C=Cc2c(C)n(CCN3CCOCC3)c3ccccc23)cc1` [Example 19, 1-{2-methyl-1-[2-(4-morpholinyl)ethyl]-1H-indol-3-yl}-3-(4-methoxyphenyl)propen-3-one monohydrochloride], the inhibition in vivo at 100 mg/kg turned out to be 40%.

For `Cc1c(C(=O)C=Cc2ccccc2F)c2ccccc2n1CCN1CCOCC1` [Example 20B, 3-(2-fluorocinnamoyl)-2-methyl-1-[2-(4-morpholinyl)ethyl]-1H-indole], the inhibition in vivo at 100 mg/kg stood at 40%.

Consider `COCCNc1ccc(C(=O)c2c(C)n(CCN3CCOCC3)c3ccccc23)cc1` [Example 26A, 2-methyl-3-[4-(2-methoxyethylamino)benzoyl]-1-[2-(4-morpholinyl)ethyl]-1H-indole], for which the inhibition in vivo at 100 mg/kg stood at 40%.

With `Cc1c(C(=O)c2ccc(N3CCCC(O)C3)cc2)c2ccccc2n1CCN1CCOCC1` (stereo not drawn) [Example 26B], the inhibition in vivo at 100 mg/kg was found to be 40%.

In the case of `Cc1c(C(=O)c2ccc(N3CCNCC3)cc2)c2ccccc2n1CCN1CCOCC1` [Example 26C], the inhibition in vivo at 100 mg/kg amounted to 30%.

Take `Cc1c(C(=O)c2ccc(N3CCC(O)CC3)cc2)c2ccccc2n1CCN1CCOCC1` [Example 26D]: the inhibition in vivo at 100 mg/kg stood at 30%.

Take `Cc1c(C(=O)c2ccc(N3CCOCC3)cc2)c2ccccc2n1CCN1CCOCC1` [Example 26G]: the inhibition in vivo at 100 mg/kg came out at 20%.

With `COc1ccc(C(=O)c2c(C)n(CCCNCCCCl)c3ccccc23)cc1` [Example 28, 1-[3-(3-chloropropylamino)propyl]-2-methyl-3-(4-methoxybenzoyl)-1H-indole hydrochloride], the inhibition in vivo at 100 mg/kg was found to be 90%.

For `COc1ccc(C(=O)c2c(C)n(CCCN3CC[S+]([O-])CC3)c3ccc(F)cc23)cc1` [Example 29A, 5fluoro-2-methyl-3-(4-methoxybenzoyl)-1-[3-(4-thiomorpholinyl)propyl]-1H-indole S-oxide maleate], the inhibition in vivo at 100 mg/kg turned out to be 60%.

Regarding `COc1ccc(C(=O)c2c(C)n(CCN3CC[S+]([O-])CC3)c3ccccc23)cc1` [Example 29B, 2-methyl-3-(4-methoxybenzoyl)-1-[2-(4-thiomorpholinyl)ethyl]-1H-indole S-oxide maleate], the inhibition in vivo at 100 mg/kg came to 60%.

Regarding `COc1ccc(C(=O)c2c(C)n(CC[N+]3([O-])CC[S+]([O-])CC3)c3ccccc23)cc1` (stereo not drawn) [Example 29C, 2-methyl-3-(4-methoxybenzoyl)-1-[2-(4-thiomorpholinyl)ethyl]-1H-indole S,N-dioxide dihydrate], the inhibition in vivo at 100 mg/kg turned out to be 0%.

In the case of `Cc1c(C(=O)c2ccccc2)c2cc(O)ccc2n1CCN1CCOCC1` [Example 30, 3-benzoyl-5-hydroxy-2-methyl-1-[2-(4-morpholinyl)ethyl]-1H-indole], the inhibition in vivo at 100 mg/kg was determined as 10%.

As for `CCN(CC)CC(O)Cn1c(C)c(C(=O)c2ccc(OC)cc2)c2ccccc21` (stereo not drawn) [Example 31-O], the inhibition in vivo at 100 mg/kg amounted to 100%.

As to `COc1ccc(C(=O)c2c(C)n(CC(O)CN=[N+]=[N-])c3ccccc23)cc1` (stereo not drawn) [Example 31J, 1-(3-azido-2-hydroxy-1-propyl)-2-methyl-3-(4-methoxybenzoyl)-1H-indole], the inhibition in vivo at 100 mg/kg came out at 10%.

With `CCNCC(O)Cn1c(C)c(C(=O)c2ccc(OC)cc2)c2ccccc21` (stereo not drawn) [Example 31N], the inhibition in vivo at 100 mg/kg came to 90%.

Still in this assay, the particulars now being: Mus musculus, po; read-out: Ach ED50.
Usually ED50 stands for the midpoint of the dose-response relation. In the case of `COc1ccc(C(=NO)c2c(C)n(CCN3CCOCC3)c3ccccc23)cc1` [Example 13A, 2-methyl-3-(4-methoxybenzoyl)-1-[2-(4-morpholinyl)ethyl]-1H-indole oxime], the median effective dose (ED50) is 139 mg/kg.

With `COc1ccc(C(=O)c2c(C)n(CC[N+]3([O-])CCOCC3)c3ccccc23)cc1` [Example 15, 2-methyl-3-(4-methoxybenzoyl)-1-[2-(4-morpholinyl)ethyl]-1H-indole/N(MOR)-oxide], the 50% effective dose (ED50) turned out to be 155 mg/kg.

On to `Cc1ccccc1C=CC(=O)c1c(C)n(CCN2CCOCC2)c2ccccc12` [Example 20A, 3-(2-methylcinnamoyl)-2-methyl-1-[2-(4-morpholinyl)ethyl]-1H-indole], for which the ED50 was determined as 128 mg/kg.

Turning to `COc1ccc(C(=O)c2c(C)n(CCN3CCCC(OC(C)=O)C3)c3ccccc23)cc1.O=C(O)/C=C\C(=O)O` (stereo not drawn) [Example 21, 1-[2-(3-acetoxy-1-piperidinyl)ethyl]-2-methyl-3-(4-methoxybenzoyl)-1H-indole maleate (1:1)], the 50% effective dose (ED50) is 31 mg/kg.

Regarding `CCOC(=O)N1CCN(CCn2c(C)c(C(=O)c3ccc(OC)cc3)c3ccccc32)CC1.O=C(O)/C=C\C(=O)O` [Example 22, 1-[2-(4-carbethoxy-1-piperazinyl)ethyl]-2-methyl-3-(4-methoxybenzoyl)-1H-indole maleate (1:1)], the 50% effective dose (ED50) was 66.8 mg/kg.

In the case of `COc1ccc(C(=O)c2c(C)n(CCN3CCN(C(C)=O)CC3)c3ccccc23)cc1.O=C(O)/C=C\C(=O)O` [Example 23A, 1-[2-(4-acetyl-1-piperazinyl)ethyl]-2-methyl-3-(4-methoxybenzoyl)-1H-indole maleate (1:1)], the ED50 turned out to be 85 mg/kg.

Consider `COc1ccc(C(=O)c2c(C)n(CCCN3CCN(C(C)=O)CC3)c3ccc(F)cc23)cc1.CS(=O)(=O)O` [Example 23B, 5-fluoro-2-methyl-3-(4-methoxybenzoyl)-1-[3-(4-acetyl-1-piperazinyl)propyl]-1H-indole methanesulfonate], for which the median effective dose (ED50) came out at 39 mg/kg.

As to `COc1ccc(C(=O)c2c(C)n(CCCN)c3ccc(F)cc23)cc1.O=C(O)/C=C\C(=O)O` [Example 25A, 1-(3-aminopropyl)-5-fluoro-2-methyl-3-(4-methoxybenzoyl)-1H-indole maleate (1:1)], the median effective dose (ED50) worked out at 82.5 mg/kg.

On to `COc1ccc(C(=O)c2c(C)n(CCN)c3ccccc23)cc1.O=C(O)/C=C\C(=O)O` [Example 25B, 1-(2-aminoethyl)-2-methyl-3-(4-methoxybenzoyl)-1H-indole maleate], for which the ED50 was 42 mg/kg.

Turning to `Cc1c(C(=O)c2ccc(-n3ccnc3)cc2)c2ccccc2n1CCN1CCOCC1` [Example 26E], the ED50 was 73.1 mg/kg.

With `Cc1c(C(=O)c2ccc(-n3ccnc3)cc2)c2cc(F)ccc2n1CCCN1CCOCC1` [Example 26F], the 50% effective dose (ED50) came out at 61 mg/kg.

Consider `COc1ccc(C(=O)c2c(C)n(CCN3CCNCC3)c3ccccc23)cc1.CS(=O)(=O)O.CS(=O)(=O)O` [Example 27A, 2-methyl-3-(4-methoxybenzoyl)-1-[2-(1-piperazinyl)ethyl]-1H-indole dimethanesulfonate], for which the median effective dose (ED50) is 20.7 mg/kg.

Consider `COc1ccc(C(=O)c2c(C)n(CCNCCO)c3ccccc23)cc1` [Example 27B, 1-[2-(2-hydroxyethylamino)ethyl]-2-methyl-3-(4-methoxybenzoyl)-1H-indole], for which the ED50 came to 59.8 mg/kg.

As to `COc1ccc(C(=O)c2c(C)n(CCN3CCCC(N)C3)c3ccccc23)cc1.O=C(O)/C=C\C(=O)O.O=C(O)/C=C\C(=O)O` (stereo not drawn) [Example 27C, 1-[2-(3-amino-1-piperidinyl)ethyl]-2-methyl-3-(4-methoxybenzoyl)-1H-indole maleate (1:2)], the ED50 came to 29.4 mg/kg.

`COc1ccc(C(=O)c2c(C)n(CCCN3CCNCC3)c3ccc(F)cc23)cc1.CS(=O)(=O)O.CS(=O)(=O)O` [Example 27D, 5-fluoro-2-methyl-3-(4-methoxybenzoyl)-1-[3-(1-piperazinyl)propyl]-1H-indole dimethanesulfonate]: the ED50 amounted to 30 mg/kg.

Turning to `COc1ccc(C(=O)c2c(C)n(CC(O)CN3CCOCC3)c3ccc(F)cc23)cc1.Cl.O` (stereo not drawn) [Example 31A, 1-[2-hydroxy-3-(4-morpholinyl)propyl]-5-fluoro-2-methyl-3-(4-methoxybenzoyl)-1H-indole hydrochloride hydrate], the ED50 is 58 mg/kg.

Consider `COc1ccc(C(=O)c2c(C)n(CC(O)CN3CCCC3)c3ccc(F)cc23)cc1` (stereo not drawn) [Example 31C], for which the ED50 is 53 mg/kg.

On to `COc1ccc(C(=O)c2c(C)n(CC(O)CN3CCOCC3)c3ccccc23)cc1` (stereo not drawn) [Example 31G], for which the ED50 amounted to 133 mg/kg.

On to `COc1ccc(C(=O)c2c(C)n(CC(O)CN3CCCC3)c3ccccc23)cc1` (stereo not drawn) [Example 31H], for which the 50% effective dose (ED50) came to 56 mg/kg.

For the molecule `COc1ccc(C(=O)c2c(C)n(CC(O)CN3CCC3)c3ccccc23)cc1` (stereo not drawn) [Example 31K], the ED50 turned out to be 28 mg/kg.

On to `COc1ccc(C(=O)c2c(C)n(CC(O)CN(C)C)c3ccccc23)cc1` (stereo not drawn) [Example 31L], for which the median effective dose (ED50) stood at 32 mg/kg.

Consider `COc1ccc(C(=O)c2c(C)n(CC(O)CNC(C)C)c3ccccc23)cc1` (stereo not drawn) [Example 31M], for which the ED50 stood at 26 mg/kg.
